Results published in PMC6143143 (Biochemistry, 2018).

What was measured:
[1] = target: MmCobD (MM2060 protein, full length) (Methanosarcina mazei, UniProt Q8PVB1); experiment: ADP-Glo ATPase inhibition assay; format: biochemical; settings: MmCobD 6 μM, HEPES pH 7.5
SeCobD = target: T1, SeCobD (Salmonella enterica, UniProt P97084); experiment: […]-NMR and […] TLC decarboxylation assay; format: biochemical; settings: decarboxylated to (R)-1-aminopropan-2-ol O-phosphate; pH 8.5
T1 sequence (P97084 1-364): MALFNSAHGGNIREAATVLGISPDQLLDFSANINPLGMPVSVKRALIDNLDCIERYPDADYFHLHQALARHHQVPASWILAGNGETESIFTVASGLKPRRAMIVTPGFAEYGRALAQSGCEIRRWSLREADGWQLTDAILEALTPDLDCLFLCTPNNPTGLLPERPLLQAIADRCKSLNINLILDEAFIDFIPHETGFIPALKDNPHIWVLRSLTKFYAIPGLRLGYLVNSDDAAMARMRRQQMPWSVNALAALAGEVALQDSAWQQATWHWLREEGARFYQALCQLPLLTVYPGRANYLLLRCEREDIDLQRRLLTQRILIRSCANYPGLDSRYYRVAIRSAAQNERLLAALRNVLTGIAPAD

O=P(O)(O)OP(=O)(O)OP(=O)(O)O [PPPi]
inhibition ([1]; inhibitor 10 mM): MmCobD was inhibited in the following order from most inhibitory to least: BeF2>ADP>ADP-γ-S>PPPi>Na3VO4

[O]=[V]([OH])([OH])[OH] [Na3VO4]
inhibition ([1]; inhibitor 1 mM, weakest of the series): MmCobD was inhibited in the following order from most inhibitory to least: BeF2>ADP>ADP-γ-S>PPPi>Na3VO4

C[C@@H](OP(=O)(O)O)[C@H](N)C(=O)O [L-Thr-P]
13C-NMR and 14C TLC decarboxylation assay (SeCobD): conversion of L-Thr-P (peaks A, B, C, D; red) to AP-P
